Marks after values point to notes of the source that are not given here.
How the values were obtained:
[1] = test system: male white Swiss mice (CD-1); experiment: Subcutaneous pentylenetetrazole test (scPTZ), screening; assay type: in vivo; settings: 100 mg/kg intraperitoneal, time point 0.5 h
Method: (§1) The studies were carried out on male white Swiss mice (CD-1) weighing 18-26 g. All procedures were performed in accordance with the applicable Polish and international guidelines for the ethics of animal research, after obtaining of the appropriate institutional consent. […] Screening tests were performed in groups consisted of 4 mice. All tests were performed according to the procedures described in the specialist literature: maximal electroshock test (MES) (Kamiński et al. Bioorg. Med. Chem. 2015, 23, 2548-2561; Castel-Branco et al. Pharmacol. 2009, 31, 101-106, Riban et al. Neurosci. 2002, 112, 101-111); psychomotor seizure test (6 Hz, 32 mA) (Barton et al. Epilepsy Res. 2001, 47, 217-227; Wojda et al. Epilepsy Res. 2009, 86, 163-174); subcutaneous pentylenetetrazole test (scPTZ) (Ferreri et al. Pharmacol. Biochem. Behav. 2004, 77, 85-94).

[2] = test system: male white Swiss mice (CD-1); experiment: Psychomotor seizure test (6 Hz, 32 mA), screening; assay type: in vivo; settings: 100 mg/kg intraperitoneal, time point 0.5 h
Method: as §1

[3] = Water solubility test at 25° C. per 1 gram of compound (European Pharmacopoeia 10.0 / Polish Pharmacopoeia XII); settings: for The volume of water required for dissolution of 1 g of the substance at 25° C.: 1 g of compound, maximum volume of water used 100 mL; for Matching term (solubility in water, pharmacopoeial terminology): European Pharmacopoeia 10.0 / Polish Pharmacopoeia XII
[4] = test system: male white Swiss mice (CD-1); experiment: Maximal electroshock test (MES), screening; assay type: in vivo; settings: 100 mg/kg intraperitoneal, time point 0.5 h
Method: as §1

[5] = test system: male white Swiss mice (CD-1); experiment: Anticonvulsant screening summarised over MES, scPTZ and 6 Hz (32 mA) models; assay type: in vivo; settings: screening data of Table 3, 100 mg/kg intraperitoneal
Method: as §1
These models are recognized as the most important and widely used pharmacological tests allowing the identification of candidates for new antiepileptic drugs. […] This is crucial in situations requiring immediate intervention to stop seizures, including, e.g status epilpepticus, which is considered as a life-threatening situation.

[6] = test system: male white Swiss mice (CD-1); settings: model AED, comparison; cited from earlier work
[7] = test system: male white Swiss mice (CD-1); settings: model AED, comparison; cited from earlier work; remark: listed apart in the source

| Compound | scPTZ: number of mice protected/number of mice tested [1] | 6 Hz (32 mA): number of mice protected/number of mice tested [2] | The volume of water required for dissolution of 1 g of the substance at 25° C. [3] | Matching term (solubility in water, pharmacopoeial terminology) [3] | MES: number of mice protected/number of mice tested [4] | Anticonvulsant activity (in words) [5] | Activity in scPTZ test (in words) [6] | Activity in MES test (in words) [7] |
| --- | --- | --- | --- | --- | --- | --- | --- | --- |
| C[C@H](C(=O)NCc1ccccc1F)N1C(=O)CCC1=O [(2R)-2, reference compound] | 3/4 | 4/4 | >100^c mL | Slightly soluble | 4/4 |  |  |  |
| CC(C(=O)NCc1ccccc1F)N1CCCC1=O [(2R,S)-4, (2R,S)-N-(2-fluorobenzyl)-2-(2-oxopyrrolidin-1-yl)propanamide] | 2/4 | 3/4 | 30 mL | Soluble | 3/4 |  |  |  |
| C[C@H](C(=O)NCc1ccccc1)N1CCCC1=O [Compound (2R)-3, (2R)-N-benzyl-2-(2-oxopyrrolidin-1-yl)propanamide] | 3/4 | 4/4 | 25 mL | Soluble | 4/4 | potent anticonvulsant activity |  |  |
| C[C@H](C(=O)NCc1ccccc1)N1C(=O)CC(N(C)C)C1=O.Cl (stereo partly drawn) [Compound (2R)-5 × HCl, (2R)-N-benzyl-2-(3-(dimethylamino)-2,5-dioxopyrrolidin-1-yl)propanamide hydrochloride] |  |  |  |  |  | potent anticonvulsant activity |  |  |
| CC(C(=O)NCc1ccccc1)N1CCCC1=O [Compound (2R,S)-3, (2R,S)-N-benzyl-2-(2-oxopyrrolidin-1-yl)propanamide] | 2/4 | 4/4 | 25 mL | Soluble | 3/4 |  |  |  |
| C[C@H](C(=O)NCc1ccccc1)N1C(=O)CCC1=O [(2R)-1, reference compound] | 3/4 | 4/4 | >100^c mL | Slightly soluble | 3/4 |  |  |  |
| CC(C(=O)NCc1ccccc1F)N1C(=O)CC(N(C)C)C1=O (stereo not shown) [Compound 6] |  |  |  | substances easily soluble in water |  |  |  |  |
| CC(C(=O)NCc1ccccc1)N1CCCC1=O (stereo not shown) [Compound 3, N-benzyl-2-(2-oxopyrrolidin-1-yl)propanamide] |  |  |  | water-soluble substances |  |  |  |  |
| CC(C(=O)NCc1ccccc1)N1C(=O)CCC1=O (racemic) [(2R,S)-1, reference compound] | 2/4 | 3/4 | >100^c mL | Slightly soluble | 3/4 |  |  |  |
| C[C@@H](C(=O)NCc1ccccc1)N1C(=O)CCC1=O [(2S)-1, reference compound] | 2/4 | 4/4 | >100^c mL | Slightly soluble | 1/4 |  |  |  |
| C[C@@H](C(=O)NCc1ccccc1F)N1CCCC1=O [Compound (2S)-4, (2S)-N-(2-fluorobenzyl)-2-(2-oxopyrrolidin-1-yl)propanamide] | 2/4 | 2/4 | 30 mL | Soluble | 2/4 |  |  |  |
| C[C@@H](C(=O)NCc1ccccc1)N1CCCC1=O [Compound (2S)-3, (2S)-N-benzyl-2-(2-oxopyrrolidin-1-yl)propanamide] | 2/4 | 2/4 | 25 mL | Soluble | 2/4 |  |  |  |
| CC(C(=O)NCc1ccccc1F)N1C(=O)CCC1=O (racemic) [(2R,S)-2, reference compound] | 3/4 | 3/4 | >100^c mL | Slightly soluble | 3/4 |  |  |  |
| C[C@H](C(=O)NCc1ccccc1F)N1CCCC1=O [Compound (2R)-4, (2R)-N-(2-fluorobenzyl)-2-(2-oxopyrrolidin-1-yl)propanamide] | 3/4 | 4/4 | 30 mL | Soluble | 4/4 | potent anticonvulsant activity |  |  |
| C[C@@H](C(=O)NCc1ccccc1F)N1C(=O)CCC1=O [(2S)-2, reference compound] | 2/4 | 2/4 | >100^c mL | Slightly soluble | 2/4 |  |  |  |
| CC[C@@H](C(N)=O)N1CCCC1=O [levetiracetam] |  |  |  |  |  |  | inactive | inactive |
| CC(C(=O)NCc1ccccc1F)N1CCCC1=O (stereo not shown) [Compound 4, N-(2-fluorobenzyl)-2-(2-oxopyrrolidin-1-yl)propanamide] |  |  |  | water-soluble substances |  |  |  |  |
| CC(C(=O)NCc1ccccc1)N1C(=O)CC(N(C)C)C1=O (stereo not shown) [Compound 5, N-benzyl-2-(3-(dimethylamino)-2,5-dioxopyrrolidin-1-yl)propanamide] |  |  |  | substances easily soluble in water |  |  |  |  |
| C[C@H](C(=O)NCc1ccccc1F)N1C(=O)CC(N(C)C)C1=O.Cl (stereo partly drawn) [Compound (2R)-6 × HCl, (2R)-2-(3-(dimethylamino)-2,5-dioxopyrrolidin-1-yl)-N-(2-fluorobenzyl)propanamide hydrochloride] |  |  |  |  |  | potent anticonvulsant activity |  |  |

From patent publication US20230192608A1, “WATER-SOLUBLE, MODIFIED AMINO ACID DERIVATIVES FOR TREATMENT OF NEUROLOGICAL DISEASES, AND SELECTED PSYCHIATRIC DISORDERS” (Uniwersytet Jagiellonski, priority 2020, published 2023)
